Patent US8778881B2 (priority 2004, dated 2014)
Numbered stars: 1 amine (or outer) side, 2 acyl side, 3 side chain; on linkers, the order of the positions; unused ones are H or OH. Bridge positions count the residues as written; N and C are the ends. Square brackets hold non-standard residues; d marks the D form. Peptide text beside a SMILES is read from it. Orn(Me) = CN(CCC[C@H](N[*:1])C(=O)[*:2])[*:3]; Ala(2-furyl) = N[C@@H](Cc1ccco1)C(=O)O; Orn(iPr) = CC(C)NCCC[C@H](N)C(=O)O; X1 = CCNCCC[C@H](N[*:1])C(=O)[*:2]; 2Thi = N[C@@H](Cc1cccs1)C(=O)O; 3Thi = N[C@@H](Cc1ccsc1)C(=O)O; Aad = N[C@@H](CCCC(=O)O)C(=O)O; Orn = NCCC[C@H](N)C(=O)O; Dab = NCC[C@H](N)C(=O)O

Each molecule was assayed against T1, hV1a receptor (Homo sapiens, UniProt P37288) (assay: hV1a receptor transcriptional reporter (luciferase) agonist assay in HEK-293 cells). Conditions: not given.
T1 construct: expressed in transfected cells; host or cells: HEK-293 cells (transient transfection)
T1 sequence (P37288 whole entry): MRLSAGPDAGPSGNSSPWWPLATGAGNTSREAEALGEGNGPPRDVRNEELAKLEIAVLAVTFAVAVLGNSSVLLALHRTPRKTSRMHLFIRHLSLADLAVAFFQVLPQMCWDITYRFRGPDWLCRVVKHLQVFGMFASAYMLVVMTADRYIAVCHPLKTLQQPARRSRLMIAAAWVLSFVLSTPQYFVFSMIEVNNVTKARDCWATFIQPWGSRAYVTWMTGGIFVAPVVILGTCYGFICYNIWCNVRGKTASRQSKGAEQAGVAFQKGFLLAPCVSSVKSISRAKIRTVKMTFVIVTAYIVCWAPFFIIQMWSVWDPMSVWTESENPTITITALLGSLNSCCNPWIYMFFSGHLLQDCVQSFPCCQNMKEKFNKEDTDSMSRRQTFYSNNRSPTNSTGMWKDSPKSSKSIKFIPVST
Format: cell-based
Procedure: (§1) Agonist activity of compounds on the hV1a receptor was determined in a transcriptional reporter assay by transiently transfecting a hV1a receptor expression DNA into HEK-293 cells in concert with a reporter DNA containing intracellular calcium responsive promoter elements regulating expression of firefly luciferase. See Boss, V., Talpade, D. J., Murphy, T. J. J. Biol. Chem. 1996, May 3; 271(18), 10429-10432 for further guidance on this assay. […] To determine selectivity, compounds were tested in luciferase-based transcriptional reporter assays expressing the human oxytocin (hOT) receptor. Assays for other receptors (hV2, hV1b, rat V1a and rat V2) were also conducted.
(§2) The EC50 value given is the geometric mean expressed in nanomol/L (nM). Selectivity values are given as EC50 ratios.
In the case of `CC[C@H](C)[C@@H]1NC(=O)[C@H](Cc2ccccc2)NC(=O)[C@@H](N)CSSC[C@@H](C(=O)N2CCC[C@H]2C(=O)N[C@@H](CCCNC(C)C)C(=O)NCC(N)=O)NC(=O)[C@H](CC(N)=O)NC(=O)[C@H](CCCC(N)=O)NC1=O` [Compound 1, [Phe^2, Hgn^4, Orn (i-Pr)^8]VT] (H-CFI[Aad](NH2)NCP[Orn(iPr)]G-NH2; disulfide 1-6; N-terminus assumed), the EC50 is reported as 2.02 nM.

Same assay, conditions: geometric mean; HEK-293 cells transiently transfected, 5 hours exposure, at least three independent experiments; read-out: EC50 hV1a receptor
In the case of `CCNC(=O)C[C@@H]1NC(=O)[C@H]([C@@H](C)CC)NC(=O)[C@H](Cc2ccccc2)NC(=O)[C@@H](N)CSSC[C@@H](C(=O)N2CCC[C@H]2C(=O)N[C@@H](CCN)C(=O)NCC(N)=O)NC(=O)[C@H](CC(N)=O)NC1=O` [Compound 4, [Phe^2,Asn (Et)^4, Dbu^8]VT] (H-CFID(NHEt)NCP[Dab]G-NH2; disulfide 1-6), the EC50 is reported as 2.36 nM.

These molecules were tested against T2, human oxytocin (hOT) receptor (Homo sapiens, UniProt P30559) (assay: luciferase-based transcriptional reporter assay expressing the human oxytocin (hOT) receptor, for selectivity). Conditions: not given.
T2 construct: expressed in transfected cells
T2 sequence (P30559 1-389): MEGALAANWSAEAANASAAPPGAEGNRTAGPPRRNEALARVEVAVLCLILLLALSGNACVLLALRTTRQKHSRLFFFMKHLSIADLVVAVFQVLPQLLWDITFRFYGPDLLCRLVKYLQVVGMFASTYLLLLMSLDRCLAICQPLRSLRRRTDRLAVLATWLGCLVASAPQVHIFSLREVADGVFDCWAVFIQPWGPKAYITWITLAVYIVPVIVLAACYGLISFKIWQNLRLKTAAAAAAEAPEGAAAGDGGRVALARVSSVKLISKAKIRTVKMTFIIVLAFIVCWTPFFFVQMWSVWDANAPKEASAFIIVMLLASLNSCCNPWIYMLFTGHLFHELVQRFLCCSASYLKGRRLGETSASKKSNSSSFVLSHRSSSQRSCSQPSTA
Format: cell-based
Procedure: as §1, §2
`CC[C@H](C)[C@@H]1NC(=O)[C@H](Cc2ccco2)NC(=O)[C@@H](N)CSSC[C@@H](C(=O)N2CCC[C@H]2C(=O)N[C@@H](CCCNC(C)C)C(=O)NCC(N)=O)NC(=O)[C@H](CC(N)=O)NC(=O)[C@H](CC(N)=O)NC1=O` [Compound 42] (H-C[Ala(2-furyl)]INNCP[Orn(iPr)]G-NH2; disulfide 1-6) was tested, and the “selectivity hOT/hV1a (class symbol)” value was “+ (key: +: selective hV1a receptor agonist; EC50 hOT/hV1a ratio not determined due to very low agonist efficacy (<30% compared to AVP) at the hOT receptor)”.

Same assay, conditions: agonist efficacy at the hOT receptor compared to AVP; ratio not determined
In the case of `CC[C@H](C)[C@@H]1NC(=O)[C@H](Cc2ccccc2)NC(=O)[C@@H](N)CSSC[C@@H](C(=O)N2CCC[C@H]2C(=O)N[C@@H](CCN)C(=O)NCC(N)=O)NC(=O)[C@H](CC(N)=O)NC(=O)[C@H](CC(=O)NC)NC1=O` [Compound 31] (H-CFID(NHMe)NCP[Dab]G-NH2; disulfide 1-6; N-terminus and C-terminus assumed), the “selectivity hOT/hV1a (class symbol)” value is reported as “+ (selective hV1a receptor agonist; EC50 hOT/hV1a ratio not determined due to very low agonist efficacy (<30% compared to AVP) at the hOT receptor)”. With `CC[C@H](C)[C@@H]1NC(=O)[C@H](Cc2cccs2)NC(=O)[C@@H](N)CSSC[C@@H](C(=O)N2CCC[C@H]2C(=O)N[C@@H](CCCN)C(=O)NCC(N)=O)NC(=O)[C@H](CC(N)=O)NC(=O)[C@H](CC(N)=O)NC1=O` [Compound 33] (H-C[2Thi]INNCP[Orn]G-NH2; disulfide 1-6; N-terminus and C-terminus assumed) the “selectivity hOT/hV1a (class symbol)” value was “+ (selective hV1a receptor agonist; EC50 hOT/hV1a ratio not determined due to very low agonist efficacy (<30% compared to AVP) at the hOT receptor)”. With `CC[C@H](C)[C@@H]1NC(=O)[C@H](Cc2ccsc2)NC(=O)[C@@H](N)CSSC[C@@H](C(=O)N2CCC[C@H]2C(=O)N[C@@H](CCCN)C(=O)NCC(N)=O)NC(=O)[C@H](CC(N)=O)NC(=O)[C@H](CC(N)=O)NC1=O` [Compound 35] (H-C[3Thi]INNCP[Orn]G-NH2; disulfide 1-6; N-terminus and C-terminus assumed) the “selectivity hOT/hV1a (class symbol)” value was “+ (selective hV1a receptor agonist; EC50 hOT/hV1a ratio not determined due to very low agonist efficacy (<30% compared to AVP) at the hOT receptor)”. For `CC[C@H](C)[C@@H]1NC(=O)[C@H](Cc2cccs2)NC(=O)[C@@H](N)CSSC[C@@H](C(=O)N2CCC[C@H]2C(=O)N[C@@H](CCN)C(=O)NCC(N)=O)NC(=O)[C@H](CC(N)=O)NC(=O)[C@H](CC(N)=O)NC1=O` [Compound 36] (H-C[2Thi]INNCP[Dab]G-NH2; disulfide 1-6; N-terminus and C-terminus assumed), the “selectivity hOT/hV1a (class symbol)” value was “+ (selective hV1a receptor agonist; EC50 hOT/hV1a ratio not determined due to very low agonist efficacy (<30% compared to AVP) at the hOT receptor)”. For `CC[C@H](C)[C@@H]1NC(=O)[C@H](Cc2ccsc2)NC(=O)[C@@H](N)CSSC[C@@H](C(=O)N2CCC[C@H]2C(=O)N[C@@H](CCN)C(=O)NCC(N)=O)NC(=O)[C@H](CC(N)=O)NC(=O)[C@H](CC(N)=O)NC1=O` [Compound 37] (H-C[3Thi]INNCP[Dab]G-NH2; disulfide 1-6; N-terminus and C-terminus assumed), the “selectivity hOT/hV1a (class symbol)” value was “+ (selective hV1a receptor agonist; EC50 hOT/hV1a ratio not determined due to very low agonist efficacy (<30% compared to AVP) at the hOT receptor)”. `CC[C@H](C)[C@@H]1NC(=O)[C@H](Cc2ccco2)NC(=O)[C@@H](N)CSSC[C@@H](C(=O)N2CCC[C@H]2C(=O)N[C@@H](CCCN)C(=O)NCC(N)=O)NC(=O)[C@H](CC(N)=O)NC(=O)[C@H](CC(N)=O)NC1=O` [Compound 38] (H-C[Ala(2-furyl)]INNCP[Orn]G-NH2; disulfide 1-6; N-terminus and C-terminus assumed) was tested, and the “selectivity hOT/hV1a (class symbol)” value was “+ (selective hV1a receptor agonist; EC50 hOT/hV1a ratio not determined due to very low agonist efficacy (<30% compared to AVP) at the hOT receptor)”. For `CC[C@H](C)[C@@H]1NC(=O)[C@H](Cc2cccs2)NC(=O)[C@@H](N)CSSC[C@@H](C(=O)N2CCC[C@H]2C(=O)N[C@@H](CCCNC(C)C)C(=O)NCC(N)=O)NC(=O)[C@H](CC(N)=O)NC(=O)[C@H](CC(N)=O)NC1=O` [Compound 43] (H-C[2Thi]INNCP[Orn(iPr)]G-NH2; disulfide 1-6; N-terminus and C-terminus assumed), the “selectivity hOT/hV1a (class symbol)” value was “+ (selective hV1a receptor agonist; EC50 hOT/hV1a ratio not determined due to very low agonist efficacy (<30% compared to AVP) at the hOT receptor)”. With `CC[C@H](C)[C@@H]1NC(=O)[C@H](Cc2ccco2)NC(=O)[C@@H](N)CSSC[C@@H](C(=O)N2CCC[C@H]2C(=O)N[C@@H](CCN)C(=O)NCC(N)=O)NC(=O)[C@H](CC(N)=O)NC(=O)[C@H](CC(N)=O)NC1=O` [Compound 44] (H-C[Ala(2-furyl)]INNCP[Dab]G-NH2; disulfide 1-6; N-terminus and C-terminus assumed) the “selectivity hOT/hV1a (class symbol)” value was “+ (selective hV1a receptor agonist; EC50 hOT/hV1a ratio not determined due to very low agonist efficacy (<30% compared to AVP) at the hOT receptor)”. With `CC[C@H](C)[C@@H]1NC(=O)[C@H](Cc2ccccc2)NC(=O)[C@@H](N)CSSC[C@@H](C(=O)N2CCC[C@H]2C(=O)N[C@@H](CCCNC)C(=O)NCC(N)=O)NC(=O)[C@H](CC(N)=O)NC(=O)[C@H](CC(N)=O)NC1=O` [Compound 46] (H-CFINNCP[Orn(Me)]G-NH2; disulfide 1-6; N-terminus and C-terminus assumed) the “selectivity hOT/hV1a (class symbol)” value was “+ (selective hV1a receptor agonist; EC50 hOT/hV1a ratio not determined due to very low agonist efficacy (<30% compared to AVP) at the hOT receptor)”. In the case of `CCNCCC[C@H](NC(=O)[C@@H]1CCCN1C(=O)[C@@H]1CSSC[C@H](N)C(=O)N[C@@H](Cc2ccccc2)C(=O)N[C@@H]([C@@H](C)CC)C(=O)N[C@@H](CC(N)=O)C(=O)N[C@@H](CC(N)=O)C(=O)N1)C(=O)NCC(N)=O` [Compound 47] (H-CFINNCP[X1]G-NH2; disulfide 1-6; N-terminus and C-terminus assumed), the “selectivity hOT/hV1a (class symbol)” value is reported as “+ (selective hV1a receptor agonist; EC50 hOT/hV1a ratio not determined due to very low agonist efficacy (<30% compared to AVP) at the hOT receptor)”. `CCNC(=O)C[C@@H]1NC(=O)[C@H]([C@@H](C)CC)NC(=O)[C@H](Cc2ccccc2)NC(=O)[C@@H](N)CSSC[C@@H](C(=O)N2CCC[C@H]2C(=O)N[C@@H](CCCN)C(=O)NCC(N)=O)NC(=O)[C@H](CC(N)=O)NC1=O` [Compound 48] (H-CFID(NHEt)NCP[Orn]G-NH2; disulfide 1-6; N-terminus and C-terminus assumed) was tested, and the “selectivity hOT/hV1a (class symbol)” value was “+ (selective hV1a receptor agonist; EC50 hOT/hV1a ratio not determined due to very low agonist efficacy (<30% compared to AVP) at the hOT receptor)”. For `CC[C@H](C)[C@@H]1NC(=O)[C@H](Cc2ccccc2)NC(=O)[C@@H](N)CSSC[C@@H](C(=O)N2CCC[C@H]2C(=O)N[C@@H](CCCN)C(=O)NCC(N)=O)NC(=O)[C@H](CC(N)=O)NC(=O)[C@H](CC(=O)NC)NC1=O` [Compound 49] (H-CFID(NHMe)NCP[Orn]G-NH2; disulfide 1-6; N-terminus and C-terminus assumed), the “selectivity hOT/hV1a (class symbol)” value was “+ (selective hV1a receptor agonist; EC50 hOT/hV1a ratio not determined due to very low agonist efficacy (<30% compared to AVP) at the hOT receptor)”. For `NCCCC[C@H](NC(=O)[C@@H]1CCCN1C(=O)[C@@H]1CSSC[C@H](NC(=O)CNC(=O)CNC(=O)CN)C(=O)N[C@@H](Cc2ccc(O)cc2)C(=O)N[C@@H](Cc2ccccc2)C(=O)N[C@@H](CCC(N)=O)C(=O)N[C@@H](CC(N)=O)C(=O)N1)C(=O)NCC(N)=O` [terlipressin, reference compound] (H-GGGCYFQNCPKG-NH2; disulfide 4-9), the “selectivity hOT/hV1a (class symbol)” value was “+ (selective hV1a receptor agonist; EC50 hOT/hV1a ratio not determined due to very low agonist efficacy (<30% compared to AVP) at the hOT receptor)”.
